Common to all, as to experiment: growth of human tumour cells (NCI), 48 h
Assay [1] has as its system M14 melanoma.
Assay [2] deals with A549 NSCLC.
Assay [3] deals with MOLT-4 leukemia.
Assay [4] deals with HOP-62 NSCLC.
Assay [5] deals with MALME-3M melanoma.
Assay [6] has as its system 786-0 renal.
Assay [7] deals with SNB-75 CNS.
Assay [8] has as its system MCF7 breast.
In assay [9] the test system is MDA-MB-435.
Assay [10] concerns CAKI-1 renal.

Several values for one entry are separate records, joined by “and”; a condition that tells them apart may be missing. Equal values may be shown once.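 96-well plates; 48 h exposure; 5 concentrations. Endpoints by linear interpolation between flanking doses. Not reached: highest tested concentration assigned. GI50 marks 50% less growth. TGI is the concentration that stops growth completely.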 Peptide text beside a SMILES is read from it. * marks the point of attachment. Boc = CC(C)(C)OC(=O)*

On to `Cc1c(-c2coc(-c3ccc(Cl)cc3)n2)c(=O)n(-c2ccccc2)n1C`, for which the TGI in assay [1], in assay [2], in assay [3], in assay [4], in assay [5] and in assay [6] was > 100 µM in each case. Moreover, the TGI in assay [7] is > 100 µM.

For `CSCCC(NC(=O)C(CC(C)C)NC(=O)CNC(=O)OC(C)(C)C)C(=O)N(C)C` (stereo not drawn) (Boc-Gly-Leu-Met-NMe2; configuration not given here), the TGI in [1], in assay [2], in [3], in assay [8], in assay [5] and in assay [6] was > 100 µM in each case. Besides, the TGI in [9] and in assay [10] was > 100 µM in each case.

On to `Cc1cnc2[nH]c(-c3ccccc3)cc(=O)c2c1`, for which the TGI in [1] is > 18 µM; in [2] it was > 100 µM; in assay [3], > 14.4 µM; in assay [4] it was > 100 µM; in [8], > 100 µM; in [5], > 100 µM. In addition, the results for the TGI in [6], in assay [7] and in assay [10] were > 100 µM, 82.8 µM and > 100 µM, respectively.

Take `C/C(=N\O)c1ccc(Nc2c3ccccc3nc3occc23)cc1`: the TGI in assay [1] is 3.5 µM; in assay [2], > 11.9 µM; in assay [3] it was > 21.3 µM; in assay [4], > 24.1 µM; in assay [5], > 50 µM; in assay [6], 3.3 µM. Further, the TGI in [7] was 3.78 µM; in [9], 0.0781 µM.

Consider `CSc1s[s+]c(SC)c1-c1ccccc1`, for which the TGI in assay [1] was 30.8 µM; in assay [2] it was > 100 µM; in assay [3] it was > 100 µM; in assay [4], 29.4 µM; in assay [8] it was 33.7 µM; in [5] it was 24.6 µM. Besides, the figures for the TGI in assay [6], in [9] and in [10] were 28.1 µM, 36 µM and 36.4 µM, respectively.

With `CCOC(=O)C(Cc1c(-c2[nH]c3ccccc3c2CC(NC(=O)CNC(C)=O)C(=O)OCC)[nH]c2ccccc12)NC(=O)CNC(C)=O` (configuration not stated), the TGI is > 100 µM in assay [1]; > 100 µM in assay [2]; > 100 µM in assay [3]; > 100 µM in [4]; 38.2 µM in assay [5]; 93.6 µM in assay [7]. For the same compound, the TGI in [9] and in [10] was > 100 µM in each case.

Consider `c1ccc(C/C(=N\Nc2nc3ccccc3o2)c2ccccn2)cc1`, for which the TGI in assay [1] is 0.992 µM; in assay [2], > 34.6 µM; in assay [4] it was 1.55 µM; in [8] it was 0.0215 µM; in [5], 1.82 µM; in assay [6], 0.136 µM. The TGI in assay [9] stood at 12.7 µM; in [10] it was 0.654 µM.

For `CCN(CC)c1ccc(C(=C2C=CC(=[N+](CC)CC)C=C2)c2ccccc2)cc1`, the TGI in [1] stood at 0.641 µM; in [3], 0.0383 µM; in assay [4], 0.491 µM; in assay [5] it was 0.0902 µM; in assay [6] it was 0.151 µM; in [7], 1.25 µM. Besides, the TGI in [10] stood at 0.504 µM.

As for `C=C1C(=O)C[C@@]23CCC[C@@]12CC(O)C3` (some centres not stated), the TGI in assay [2] was > 100 µM; in assay [3], > 80.7 µM; in assay [4], > 100 µM; in assay [8], 33.6 µM; in assay [5], 18.3 µM; in assay [7], 48.7 µM.

`CSC1(SC)CCCCCCCCCCC1`: the TGI in [1] is > 100 µM; in assay [2] it was > 100 µM; in [3] it was > 100 µM; in [4] it was > 100 µM; in [8], 38.1 µM; in assay [5], 70.9 µM. Also, the TGI in assay [6], in assay [9] and in [10] was > 100 µM throughout.

For the compound `COc1cc2c(c(OC)c1OC)-c1ccc(SC)c(=O)cc1[C@@H](NC(=O)c1ccc(C#N)cc1)CC2`, the TGI is > 100 µM in assay [2]; > 53.8 µM in assay [3]; 56.4 µM in assay [4]; 96.9 µM in assay [5]; 20.9 µM in assay [6]; 92.4 µM in assay [7].

With `CC(=O)c1c(O)c(C)c(O)c2c1OC1=CC(=O)C(C(C)=O)C(=O)C12C` (configuration not stated), the GI50 in assay [2] is 3.77 µM and 13.8 µM; in assay [3], 3.37 µM and 20.1 µM; in assay [4], 3.66 µM and 20.1 µM; in [8] it was 5.75 µM and 12 µM; in assay [7] it was 5.97 µM and 22.5 µM; in [10], 29.5 µM and 10.5 µM. Further, the TGI in assay [2] is 25.1 µM and 48.4 µM; in assay [3], 13.5 µM and 59.4 µM; in [4] it was 12.2 µM and 46.1 µM; in assay [8], 24.7 µM and 26 µM; in [5], 28.8 µM and 42.6 µM; in assay [7], 21.2 µM and 49 µM. The TGI in assay [10] was 79.8 µM and 26.8 µM.

With `N#Cc1nnc2c3c(-c4ccc(Cl)cc4)c(C#N)c(=O)[nH]c3nn2c1N`, the TGI is 21.7 µM in assay [1]; > 59.9 µM in assay [2]; 14.1 µM in [3]; 21.8 µM in assay [4]; 16.3 µM in assay [8]; 31.6 µM in [5]. Further, the TGI in [6] was 18.2 µM; in assay [9], 26.8 µM; in assay [10], 16.4 µM.

As for `O=C(Nc1ccccc1)N1N=C(c2ccccc2)C1c1ccccc1` (configuration not stated), the TGI in [1] is 60.4 µM; in [2] it was > 100 µM; in assay [8] it was 51.8 µM; in assay [5], 64.2 µM; in [6], 36.6 µM; in [7] it was 32 µM. Also, the TGI in [10] worked out at 95.3 µM.

As to `CC(=O)Nc1ccc(C(=O)N2N=C(C)/C(=C/c3cccc(O)c3)C2=O)cc1`, the TGI in assay [1], in [2], in assay [3], in [4], in assay [5] and in [6] was > 100 µM each time. The TGI in assay [7] and in [10] was > 100 µM each time.

Values taken from PubChem BioAssay (NCI).
